Experimental data published in US20090029992A1, “SUBSTITUTED PYRAZOLE COMPOUNDS” (priority 2007, published 2009).

How the values were obtained:
[1] = target: T1, recombinant Aurora A (Homo sapiens, UniProt O14965); experiment: Aurora A (Aurora 2) inhibition assay, Z'-Lyte kinase assay; format: biochemical; conditions: ATP 10 μM, 1 h
T1 construct: purchased Upstate, Lake Placid, N.Y
T1 sequence (O14965 1-403): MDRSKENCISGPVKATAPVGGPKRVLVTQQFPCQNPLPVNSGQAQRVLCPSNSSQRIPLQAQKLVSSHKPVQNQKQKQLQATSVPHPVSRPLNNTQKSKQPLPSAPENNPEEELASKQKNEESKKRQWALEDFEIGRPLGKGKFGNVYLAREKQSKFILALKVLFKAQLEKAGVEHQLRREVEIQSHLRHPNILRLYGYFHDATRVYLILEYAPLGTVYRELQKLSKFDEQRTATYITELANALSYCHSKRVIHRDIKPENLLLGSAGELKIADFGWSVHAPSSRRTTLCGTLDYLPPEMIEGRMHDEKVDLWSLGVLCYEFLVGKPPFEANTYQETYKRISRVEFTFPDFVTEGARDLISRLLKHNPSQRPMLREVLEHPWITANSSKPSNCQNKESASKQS
Method in brief: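 Z'-Lyte FRET assay: Aurora A (200-500 ng/mL final), Ser/Thr 1 peptide (2 μM) and ATP (10 μM) in 50 mM HEPES pH 7.5, 10 mM MgCl2, 5 mM EGTA, 0.05% Brij-35, 2 mM DTT, 1 h at room temperature. Coumarin/fluorescein emission ratio converted to percent phosphorylation; dose-response curves plotted.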

[2] = target: T2, N-terminal His-tagged human Src (Homo sapiens, UniProt P12931); experiment: Src kinase inhibition assay (33P-ATP filter assay); format: biochemical
T2 construct: His (N); purchased Upstate USA Inc, 706 Forest Street, Charlottesville, Va
T2 sequence (P12931 whole entry): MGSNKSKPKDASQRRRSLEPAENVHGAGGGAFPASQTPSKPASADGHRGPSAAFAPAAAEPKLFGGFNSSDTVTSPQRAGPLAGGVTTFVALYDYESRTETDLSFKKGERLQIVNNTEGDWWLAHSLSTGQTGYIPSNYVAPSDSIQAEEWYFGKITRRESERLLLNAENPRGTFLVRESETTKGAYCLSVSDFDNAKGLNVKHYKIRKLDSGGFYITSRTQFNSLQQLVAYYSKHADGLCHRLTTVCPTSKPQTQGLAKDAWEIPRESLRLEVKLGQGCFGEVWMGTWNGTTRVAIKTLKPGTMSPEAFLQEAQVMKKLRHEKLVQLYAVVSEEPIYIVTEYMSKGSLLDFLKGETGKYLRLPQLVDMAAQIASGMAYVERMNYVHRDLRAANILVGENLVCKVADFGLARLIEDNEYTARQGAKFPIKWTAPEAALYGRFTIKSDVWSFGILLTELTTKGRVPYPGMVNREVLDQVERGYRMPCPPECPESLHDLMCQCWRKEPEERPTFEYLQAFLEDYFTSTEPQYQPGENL

[3] = tested on: HCT116 cells; experiment: Whole cell cytotoxicity assay, Sulforhodamine B; format: cell-based; conditions: Homo sapiens, HCT-116, HCT116, 96 hours incubation, SRB; for GI50: read-out: GI50 HCT116 cell growth; for IC50: read-out: IC50 values in this assay (HCT116 cell growth)
Method in brief: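 HCT116 cells (500/well) in DMEM/10% FBS/2 mM glutamine were preincubated 24 h, then exposed to compound for 96 h at 37 °C, 5% CO2, in duplicate. Cells were fixed with TCA and stained with sulforhodamine B (A570). GI50, TGI and LC50 were derived relative to a time-zero plate and an untreated control.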

[4] = group with IC50 greater than 100 nM

SMILES | IC50 [1] | IC50 ([2]; 40 minutes at room temperature) | GI50 [3] | IC50 [1, 4] | IC50 [3] | IC50 [2, 4]
Cc1cc(Nc2cc(NC3CCOCC3)nc(-c3cccc(N(C)C)c3)n2)n[nH]1 [Compound 74, 2-(3-(dimethylamino)phenyl)-N^4-(5-methyl-1H-pyrazol-3-yl)-N^6-(tetrahydro-2H-pyran-4-yl)pyrimidine-4,6-diamine] | ≤ 100 nM | ≤ 100 nM | ≤ 1000 nM | – | – | –
COc1ccc(-c2nc(Nc3cc(C)[nH]n3)cc(N(C)CCN(C)C)n2)cc1 [Compound 54, N^4-(2-(dimethylamino)ethyl)-2-(4-methoxyphenyl)-N^4-methyl-N^6-(5-methyl-1H-pyrazol-3-yl)pyrimidine-4,6-diamine] | – | ≤ 100 nM | ≤ 1000 nM | ≤ 1000 nM | – | –
CCOc1cccc(-c2nc(Nc3cc(C)[nH]n3)cc(N3CCN(C)CC3)n2)c1 [Example 190, 2-(3-ethoxyphenyl)-N-(5-methyl-1H-pyrazol-3-yl)-6-(4-methylpiperazin-1-yl)pyrimidin-4-amine] | ≤ 100 nM | ≤ 100 nM | ≤ 1000 nM | – | – | –
Cc1cc(Nc2cc(N3CCN(C)CC3)nc(-c3cccc(C#N)c3)n2)n[nH]1 [Example 163, 3-(4-(5-methyl-1H-pyrazol-3-ylamino)-6-(4-methylpiperazin-1-yl)pyrimidin-2-yl)benzonitrile] | ≤ 100 nM | ≤ 100 nM | ≤ 1000 nM | – | – | –
Cc1cc(Nc2cc(NC3CCOCC3)nc(-c3ccc4c(c3)OCCO4)n2)n[nH]1 [Example 130, 2-(2,3-dihydrobenzo[b][1,4]dioxin-6-yl)-N^4-(5-methyl-1H-pyrazol-3-yl)-N^6-(tetrahydro-2H-pyran-4-yl)pyrimidine-4,6-diamine] | ≤ 100 nM | ≤ 100 nM | – | – | 1000 to 10000 nM | –
Cc1cc(Nc2cc(N3CCN(C)CC3)nc(-c3cc(F)ccc3C)n2)n[nH]1 [Example 196, 2-(5-fluoro-2-methylphenyl)-N-(5-methyl-1H-pyrazol-3-yl)-6-(4-methylpiperazin-1-yl)pyrimidin-4-amine] | – | ≤ 100 nM | ≤ 1000 nM | ≤ 1000 nM | – | –
COCCN(C)c1cc(Nc2cc(C)[nH]n2)nc(-c2cccc(Cl)c2)n1 [Compound 62, 2-(3-chlorophenyl)-N^4-(2-methoxyethyl)-N^4-methyl-N^6-(5-methyl-1H-pyrazol-3-yl)pyrimidine-4,6-diamine] | – | – | – | ≤ 1000 nM | 1000 to 10000 nM | ≤ 1000 nM
Cc1cc(Nc2cc(NC3CCOCC3)nc(-c3cc4ccccc4o3)n2)n[nH]1 [Compound 15, 2-(benzofuran-2-yl)-N^4-(tetrahydro-2H-pyran-4-yl)-N^6-(5-methyl-1H-pyrazol-3-yl)-pyrimidine-4,6-diamine] | ≤ 100 nM | ≤ 100 nM | ≤ 1000 nM | – | – | –
Cc1cc(Nc2cc(N3CCN(C)CC3)nc(-c3ccc(Cl)cc3)n2)n[nH]1 [Compound 35, 2-(4-chlorophenyl)-N-(5-methyl-1H-pyrazol-3-yl)-6-(4-methylpiperazin-1-yl)pyrimidin-4-amine] | ≤ 100 nM | ≤ 100 nM | – | – | 1000 to 10000 nM | –
Cc1cc(Nc2cc(NC3CCOCC3)nc(-c3ccccc3)n2)n[nH]1 [Compound 12, N^4-(tetrahydro-2H-pyran-4-yl)-N^6-(5-methyl-1H-pyrazol-3-yl)-2-phenylpyrimidine-4,6-diamine] | ≤ 100 nM | ≤ 100 nM | ≤ 1000 nM | – | – | –
Cc1cc(Nc2cc(N3CCN(C)CC3)nc(-c3ccccc3)n2)n[nH]1 [Compound 8, N-(5-methyl-1H-pyrazol-3-yl)-6-(4-methylpiperazin-1-yl)-2-phenyl pyrimidin-4-amine] | ≤ 100 nM | ≤ 100 nM | ≤ 1000 nM | – | – | –
Cc1cc(Nc2cc(N3CCN(C)CC3)nc(-c3cccnc3)n2)n[nH]1 [Compound 89, N-(5-methyl-1H-pyrazol-3-yl)-6-(4-methylpiperazin-1-yl)-2-(pyridin-3-yl)pyrimidin-4-amine] | ≤ 100 nM | ≤ 100 nM | – | – | 1000 to 10000 nM | –
CC(=O)N1CCN(c2cc(Nc3cc(C)[nH]n3)nc(-c3cc4ccccc4n3C)n2)CC1 [Compound 6, 1-(4-(6-(5-methyl-1H-pyrazol-3-ylamino)-2-(1-methyl-1H-indol-2-yl)pyrimidin-4-yl)-piperazin-1-yl)ethanone] | ≤ 100 nM | ≤ 100 nM | ≤ 1000 nM | – | – | –
